Source: US20110003382A1, “USE OF CORTICOSTERONE FOR INCREASING EGG ANTIBODY” (WISCONSIN ALUMNI RESEARCH FOUNDATION, priority 2009, published 2011)

What was measured:
[1] = after 1 day of CORT at 20 mg/kg diet in drinking water; cited from earlier work
[2] = tested on: Single Comb White Leghorn hens; assay: Egg production (laying frequency); assay type: in vivo
Method: Measurement of body weight and egg production. […] Initial body weight of adult laying hens, 26- to 60-weeks of age, was reported when measured at the beginning of experiments. Data were expressed as a percentage of initial body weight (% initial BW) to determine effects of CORT on change in body weight. Eggs produced were recorded daily for each hen. Laying frequency (or egg production) of each hen during each 7 day period measured, was obtained by dividing the total number of eggs laid by 7.

[3] = tested on: Single Comb White Leghorn hens; assay: Anti-PLA2 antibody titer in egg yolk of immunized hens by ELISA; assay type: in vivo
Text: In all Examples, Single Comb White Leghorn hens (SCWL) used were transported as pullets (18- to 22-weeks of age) from S&R Farms (Whitewater, Wis.) to University of Wisconsin—Madison Poultry Research Laboratory. Hens were individually housed in cages with raised bottom floors for at least four weeks before being assigned to an Example, and were 26- to 60-weeks of age at the beginning of experiments. Hens were fed, ad libitum, a standard corn-soybean meal based laying hen diet formulated to meet nutritional requirements. Housing was maintained under an automated lighting schedule with 16:8-h light-dark cycle. All procedures involving animals were approved by Animal Care Committee at University of Wisconsin, Madison.
The antigen selected for comparing the antibody response of hens was a 13 kDa soluble protein antigen, phospholipase A2 (PLA2) purified from porcine pancreas (Novozyme, Bagsvaerd, Denmark; greater than 90% purity based on SDS-PAGE). PLA2 was used because of its commercial relevance, and its previous use as a model antigen for studying hen antibody response (Trott, et al., 2008, “Additions of killed whole cell bacteria preparations to Freund complete adjuvant alter laying hen antibody response to soluble protein antigen,” Poult. Sci., 87(5):912-917). Hens were immunized according to methods described by Trott, et al. (2008). The primary immunization for each hen was a water-in-oil emulsion (50:50) that consisted of 3 mg PLA2 dissolved in 0.5 mL phosphate buffer saline (PBS), and emulsified with 0.5 mL of Freund Complete Adjuvant (FCA; DIFCO, Sparks, Md.). Seven days after the primary immunization, each hen received a booster injection containing 3 mg PLA2 dissolved in 0.5 mL PBS and emulsified with Freund Incomplete Adjuvant (FIA; DIFCO). All injections (primary and booster) were administered i.m. into each breast and thigh of hen (1 ml/hen at 0.25 mL/injection site). In all experiments, immunization of hens (primary and booster) occurred at approximately 10 A.M. to eliminate the potential confounding effect of endogenous CORT levels fluctuating due to circadian rhythms.
Based on previous experimentation (Trott et al., 2008; Schade et al., 2001, “Chicken egg yolk antibodies: Production and application,” Springer, Heidelberg, Germany) week three after primary immunization represented peak antibody titer in egg yolk; therefore, eggs were collected once per week beginning on week three and continuing until week eight or ten for repeated testing of anti-PLA2 antibody content using an ELISA (Trott, et al., 2008).
Anti-PLA2 antibody content of egg yolk and serum samples were measured by an ELISA (Trott, et al., 2008). A 96-well Nunc-Immuno Plate with MaxiSorp surface (Thermo Fischer Scientific, Waltham, Mass.) was coated overnight (100 μl per well) with PLA2 (Sigma Aldrich, St. Louis, Mo.) at a concentration of 10 μg/ml in 50 mM sodium bicarbonate. After washing, the plate was blocked (175 μl per well) for at least 1 hour with PBS containing 1% albumin from bovine serum albumin (BSA; Sigma Aldrich). Egg antibody was water-extracted from liquid egg yolk samples. Liquid egg yolk samples […] were pipetted with a positive displacement pipette (Rainin, Oakland, Calif.) and extracted overnight with 1.8 ml acidified PBS (pH 5). The extraction mixture was centrifuged at 1,500×g for 10 minutes, and the supernate was further diluted to 1:16,000 with PBS containing 1% BSA (pH 7). Serum samples were diluted 1:16,000 in PBS containing 1% BSA. In addition to the weekly egg yolk or serum samples, an ‘in-lab standard’ was applied to each ELISA plate. The standard applied to each plate consisted of a 2-fold serial dilution from 1:2,000 to 1:64,000 of water-extracted egg yolks from hens immunized against PLA2 in a previous trial. After coating, blocking, and washing the plate, duplicate samples and ‘in-lab standard’ (100 μl/well) were incubated for 1 hour on the plate followed by washing (6×). […]

[4] = tested on: Single Comb White Leghorn hens; assay: Peripheral blood mononuclear cell (PBMC) counts; assay type: in vivo
Method: Peripheral Blood Mononuclear Cell Counts. […] Whole blood (2-3 ml) was collected from wing vein into heparin-containing tubes (Becton Dickinson, Sparks, Md.). In 15-ml conical tubes, blood (2 ml) was layered on an equal volume (2 ml) of 1077 Histopaque (Sigma-Aldrich), and centrifuged at 400×g for 30 minutes at room temperature. Mononuclear cells were collected from the gradient interface, and re-suspended in PBS to the original blood volume (2 ml) or the sample. PBMCs were further diluted (1:16) in PBS, mixed with an equal volume of 0.4% trypan blue solution (Sigma-Aldrich), and counted, microscopically, with the aid of a hemacytometer.

[5] = tested on: broilers; details: dietary CORT 30 mg/kg diet for 1 week; cited from earlier work
[6] = Example 3: CORT 5 days, week 1 after diet administration
[7] = Example 4: CORT 6 days, weeks 4 to 10 after primary immunization

## C[C@]12C[C@H](O)[C@H]3[C@@H](CCC4=CC(=O)CC[C@@]43C)[C@@H]1CC[C@@H]2C(=O)CO [CORT, corticosterone]
[1]
  plasma CORT concentrations: significant increase
[2]; Example 3: CORT 5 days, p=0.004
  decrease in egg production between week 1 before and week 1 after diet administration: 21%
[2]; Example 3: CORT 5 days, p=0.57
  overall difference in egg production vs control-fed hens: no overall difference
[2]; Example 3: CORT 5 days, throughout the Example
  egg production, overall: 73%
[2]; [6]
  egg production: 50%
[2]; Example 3: CORT 5 days, week 1 after diet administration, p=0.005
  egg production less than control-fed hens: 34%
[2]; Example 3: CORT 5 days, week 2
  egg production: 62%
[2]; Example 3: CORT 5 days, week 2, p=0.014
  egg production less than control-fed hens: 29%
[2]; Example 4: CORT 6 days
  overall egg production less than control-fed hens: 35%
[2]; Example 4: CORT 6 days, week 1 after diet administration
  egg production suppressed vs control-fed hens: 50%
[2]; Example 4: CORT 6 days, week 2 after diet administration
  egg production suppressed vs control-fed hens: 100%
[2]; Example 4: CORT 6 days, week 3 after diet administration
  egg production suppressed vs control-fed hens: 80%
[2]; Example 4: CORT 6 days, weeks 0 to 10
  overall egg production: 54%
[2]; [7]
  egg production: 69%
  egg production lower than control-fed hens: 17%
[2]; Example 5: CORT 9 days
  overall egg production: 39%
  overall egg production less than control-fed hens: 31%
[2]; Example 5: CORT 9 days, week 4 after diet administration
  egg production suppressed vs control-fed hens: 80%
[2]; Example 5: CORT 9 days, week 5 after diet administration
  egg production: 45%
[2]; Example 5: CORT 9 days, week 5 after diet administration, p=0.007
  egg production lower than control-fed hens: 50%
[2]; Example 5: CORT 9 days, weeks 2 and 3 after diet administration
  egg production suppressed vs control-fed hens: 60%
[2]; Example 5: CORT 9 days, weeks 6 to 11 after primary immunization
  egg production: 53%
[2]; Example 5: CORT 9 days, weeks 6 to 11 after primary immunization, p=0.001
  egg production lower than control-fed hens: 14%
[3]; Example 2: CORT 30 mg/kg diet for 2 days beginning on day 1 before primary immunization, weeks 3 to 6, p=0.24
  difference in antibody titer of egg yolks vs control-fed hens: no difference
[3]; Example 2: CORT 30 mg/kg diet for 2 days beginning on day 1 before primary immunization, weeks 3 to 6 after primary immunization
  antibody titer of egg yolks (Log2 titer): 15.52 Log2 titer
[3]; Example 3: CORT 30 mg/kg diet for 5 days beginning on day 7 before primary immunization, weeks 3 to 5 after primary immunization
  antibody titer of egg yolks (Log2 titer): 17.02 Log2 titer
[3]; Example 3: CORT for 5 days beginning on day 7 before primary immunization, weeks 3 to 5, p=0.96
  difference in antibody titer of egg yolks vs control-fed hens: no difference
[3]; Example 4: CORT 30 mg/kg diet for 6 days beginning on day 1 before primary immunization, weeks 3 to 5
  egg yolk antibody titer (Log2 titer): 17.32 Log2 titer
[3]; Example 4: CORT 6 days, entire study period weeks 3 to 9
  egg yolk antibody titer (Log2 titer): 17.37 Log2 titer
[3]; Example 4: CORT 6 days, weeks 3 to 5, p=0.006
  fold higher egg yolk antibody titer vs control-fed hens: 3.1 fold
[3]; Example 4: CORT 6 days, weeks 3 to 9, p=0.032
  fold increase in antibody titer of egg yolks vs control hens: 1.8 fold
[3]; Example 5: CORT 9 days, weeks 3 to 10, p=0.00001
  fold higher antibody titer of egg yolks vs control-fed hens: 3.0 fold
[3]; Example 5: dietary CORT for 9 days beginning on day 1 before primary immunization, weeks 3 to 10 after primary immunization
  antibody titer of egg yolks (Log2 titer): 16.50 Log2 titer
[4]; Example 3: CORT 5 days beginning day 7 before immunization, p=0.82
  overall effect of CORT on PBMC counts: no effect
[4]; [6]
  PBMC count: 17,800 cells/μl blood
[4]; Example 3: CORT 5 days, week 1 after diet administration, p=0.025
  PBMC count as % of control-fed hens: 49%
[4]; Example 3: CORT 5 days, week 2 after diet administration
  PBMC count: 35,400 cells/μl blood
[4]; Example 4: CORT 30 mg/kg diet 6 days, week 1 after diet administration
  PBMC count: 9,200 cells/μl blood
[4]; Example 4: CORT 6 days, week 1 after diet administration, p<0.0001
  PBMC count as % of control-fed hens: 43%
[4]; Example 4: CORT 6 days, week 2
  PBMC count: 12,900 cells/μl blood
[4]; Example 4: CORT 6 days, week 2, p=0.001
  PBMC count as % of control-fed hens: 59%
[4]; Example 4: CORT 6 days, week 3, returned to control levels, p=0.57
  PBMC count: 19,700 cells/μl blood
[5]
  effect on body weight gain in broilers: negatively affect
